The data set has as its system CCRIS mutagenicity, Ames/micronucleus/aberration tests. Put plainly: CCRIS mutagenicity studies.
Where [1] appears, read: Test System: AMES SALMONELLA TYPHIMURIUM, Strain/Indicator: TA98, Metabolic Activation: NONE, Method: STANDARD PLATE.
The mark [2] stands for this setting: Test System: AMES SALMONELLA TYPHIMURIUM, Strain/Indicator: TA98, Metabolic Activation: RAT, LIVER, S-9, AROCLOR 1254, Method: STANDARD PLATE.
Setting [3] is: Test System: AMES SALMONELLA TYPHIMURIUM, Strain/Indicator: TA100, Metabolic Activation: NONE, Method: STANDARD PLATE.
The mark [4] stands for this setting: Test System: AMES SALMONELLA TYPHIMURIUM, Strain/Indicator: TA100, Metabolic Activation: RAT, LIVER, S-9, AROCLOR 1254, Method: STANDARD PLATE.
[5] abbreviates: Test System: AMES SALMONELLA TYPHIMURIUM, Strain/Indicator: TA98, Metabolic Activation: NONE, Method: PREINCUBATION
The mark [6] stands for this setting: Test System: AMES SALMONELLA TYPHIMURIUM, Strain/Indicator: TA100, Metabolic Activation: NONE, Method: PREINCUBATION

The source made the active and inactive calls. No rule for the calls is given here.

Turning to `C=CC(=O)OCC(CC)(COC(=O)C=C)COC(=O)C=C`, the mutagenic call is “inactive; negative” (End Point: In vivo micronucleus, Test System: Peripheral blood normochromatic erythrocytes, Species: Mouse, Strain/Sex: B6C3F1/Female, Route: Dermal); “inactive; negative” (End Point: In vivo micronucleus, Test System: Peripheral blood normochromatic erythrocytes, Species: Mouse, Strain/Sex: B6C3F1/Male, Route: Dermal); “inactive; negative, purity 80%” (End Point: In vivo micronucleus, Test System: Peripheral blood normochromatic erythrocytes, Species: Mouse, Strain/Sex: FVB.N/TgN (v-Ha-ras) Tg.AC hemizygous/Female, Route: Dermal); “inactive; negative” (End Point: In vivo micronucleus, Test System: Peripheral blood normochromatic erythrocytes, Species: Mouse, Strain/Sex: FVB.N/TgN (v-Ha-ras) Tg.AC hemizygous/Male, Route: Dermal); “inactive; negative” (Test System: AMES SALMONELLA TYPHIMURIUM, Strain/Indicator: TA98, Metabolic Activation: HAMSTER, LIVER, S-9, AROCLOR 1254, Method: STANDARD PLATE); “inactive; negative” under setting [1]. For the same compound, the mutagenic call runs as follows: under setting [2], “inactive; negative”; (Test System: AMES SALMONELLA TYPHIMURIUM, Strain/Indicator: TA100, Metabolic Activation: HAMSTER, LIVER, S-9, AROCLOR 1254, Method: STANDARD PLATE) “inactive; negative”; under setting [3], “inactive; negative”; under setting [4], “inactive; negative”; (Test System: AMES SALMONELLA TYPHIMURIUM, Strain/Indicator: TA1535, Metabolic Activation: HAMSTER, LIVER, S-9, AROCLOR 1254 (5-20%), Method: STANDARD PLATE) “active; positive”; (Test System: AMES SALMONELLA TYPHIMURIUM, Strain/Indicator: TA1535, Metabolic Activation: HAMSTER, LIVER, S-9, AROCLOR 1254, Method: STANDARD PLATE) “active; positive”. The mutagenic call by setting is: (Test System: AMES SALMONELLA TYPHIMURIUM, Strain/Indicator: TA1535, Metabolic Activation: NONE, Method: STANDARD PLATE) “inactive; negative”; (Test System: AMES SALMONELLA TYPHIMURIUM, Strain/Indicator: TA1537, Metabolic Activation: HAMSTER, LIVER, S-9, AROCLOR 1254, Method: STANDARD PLATE) “inactive; negative”; (Test System: AMES SALMONELLA TYPHIMURIUM, Strain/Indicator: TA1537, Metabolic Activation: NONE, Method: STANDARD PLATE) “inactive; negative”; (Test System: AMES SALMONELLA TYPHIMURIUM, Strain/Indicator: TA1537, Metabolic Activation: RAT, LIVER, S-9, AROCLOR 1254, Method: STANDARD PLATE) “inactive; negative”; (Test System: CHINESE HAMSTER OVARY, Strain/Indicator: CHO-K1-BH4 (HGPRT)/6-THIOGUANINE, Metabolic Activation: NONE, Method: SUSPENSION/PLATE) “inactive; negative”; (Test System: CHINESE HAMSTER OVARY, Strain/Indicator: CHO-K1-BH4 (HGPRT), Metabolic Activation: NONE) “active; positive”. Besides, the mutagenic call is “inactive; negative” (Test System: CHINESE HAMSTER OVARY, Strain/Indicator: CHO-K1-BH4 (HGPRT), Metabolic Activation: NONE, Method: MONOLAYER); “active; positive” (Test System: CHINESE HAMSTER OVARY, Strain/Indicator: CHO-K1-BH4 (HGPRT), Metabolic Activation: NONE, Method: SUSPENSION/PLATE); “inactive; negative” (Test System: MOUSE LYMPHOMA, Strain/Indicator: L5178Y (TK+/TK-), Metabolic Activation: RAT, LIVER, S-9, AROCLOR 1254, Method: SUSPENSION/PLATE); “active; positive” (Test System: Mouse lymphoma, Strain/Indicator: L5178Y (tk+/tk-), Metabolic Activation: None, Method: Suspension/plate); “active; positive” (Test System: Mouse lymphoma, Strain/Indicator: L5178Y (tk+/tk-), Metabolic Activation: Rat, Liver, S-9, Aroclor 1254, Method: Suspension/plate).
On to `O=C1OCC(Br)=C1Br`, for which, under setting [3], the mutagenic call is “active; positive”.
Consider `Cc1cnc(C)c(C)n1`, for which the mutagenic call reads like this: under setting [5], “inactive; negative”; (Test System: AMES SALMONELLA TYPHIMURIUM, Strain/Indicator: TA98, Metabolic Activation: RAT, LIVER, S-9, AROCLOR 1254, Method: PREINCUBATION) “inactive; negative”; under setting [6], “inactive; negative”; (Test System: AMES SALMONELLA TYPHIMURIUM, Strain/Indicator: TA100, Metabolic Activation: RAT, LIVER, S-9, AROCLOR 1254, Method: PREINCUBATION) “inactive; negative”; (Test System: AMES SALMONELLA TYPHIMURIUM, Strain/Indicator: TA102, Metabolic Activation: NONE, Method: PREINCUBATION) “inactive; negative”; (Test System: AMES SALMONELLA TYPHIMURIUM, Strain/Indicator: TA102, Metabolic Activation: RAT, LIVER, S-9, AROCLOR 1254, Method: PREINCUBATION) “inactive; negative”.
Regarding `Cc1ccc(N)c(N)c1`, the mutagenic call is “inactive; negative” (Test System: AMES SALMONELLA TYPHIMURIUM, Strain/Indicator: TA97, Metabolic Activation: HAMSTER, LIVER, S-9, AROCLOR 1254 (10%), Method: PREINCUBATION); “inactive; negative” (Test System: AMES SALMONELLA TYPHIMURIUM, Strain/Indicator: TA97, Metabolic Activation: NONE, Method: PREINCUBATION); “active; positive” (Test System: AMES SALMONELLA TYPHIMURIUM, Strain/Indicator: TA97, Metabolic Activation: RAT, LIVER, S-9, AROCLOR 1254 (10%), Method: PREINCUBATION); “active; positive” (Test System: AMES SALMONELLA TYPHIMURIUM, Strain/Indicator: TA98, Metabolic Activation: HAMSTER, LIVER, S-9, AROCLOR 1254 (10%), Method: PREINCUBATION); “inactive; negative” under setting [5]; “active; positive” (Test System: AMES SALMONELLA TYPHIMURIUM, Strain/Indicator: TA98, Metabolic Activation: RAT, LIVER, S-9, AROCLOR 1254 (10%), Method: PREINCUBATION). The mutagenic call (Test System: AMES SALMONELLA TYPHIMURIUM, Strain/Indicator: TA100, Metabolic Activation: HAMSTER, LIVER, S-9, AROCLOR 1254 (10%), Method: PREINCUBATION) was “active; positive”; the mutagenic call under setting [6] was “inactive; negative”; the mutagenic call (Test System: AMES SALMONELLA TYPHIMURIUM, Strain/Indicator: TA100, Metabolic Activation: RAT, LIVER, S-9, AROCLOR 1254 (10%), Method: PREINCUBATION) was “active; positive”; the mutagenic call (Test System: AMES SALMONELLA TYPHIMURIUM, Strain/Indicator: TA1535, Metabolic Activation: HAMSTER, LIVER, S-9, AROCLOR 1254 (10%), Method: PREINCUBATION) is “inactive; negative”; the mutagenic call (Test System: AMES SALMONELLA TYPHIMURIUM, Strain/Indicator: TA1535, Metabolic Activation: NONE, Method: PREINCUBATION) is “inactive; negative”; the mutagenic call (Test System: AMES SALMONELLA TYPHIMURIUM, Strain/Indicator: TA1535, Metabolic Activation: RAT, LIVER, S-9, AROCLOR 1254 (10%), Method: PREINCUBATION) is “inactive; negative”.
As for `O=C1c2ccccc2-c2ccc3ccccc3c21`, the mutagenic call under setting [1] is “inactive; negative”, the mutagenic call under setting [2] is “inactive; negative”, the mutagenic call under setting [3] was “inactive; negative” and the mutagenic call under setting [4] is “inactive; negative”.

(Values after PubChem BioAssay AID1259407 (Chemical Carcinogenesis Research Information System (CCRIS), 2018).)
